Test results taken from patent publication US10717727B2, “Pyridinium compounds” (TORRENT PHARMACEUTICALS LIMITED, priority 2015, dated 2020).

Tested on: Diabetic rats
Experiment: In vivo study of effect on Nerve Conduction Velocity (NCV) in streptozotocin-induced diabetic rats
Settings: 150 mg/kg, 8 weeks of treatment after 12 weeks of diabetes, streptozotocin diabetic male Wistar rats; compared with diabetic control rats treated with vehicle; ***p<0.001 by student's t-test (FIG. 1)
Procedure: Motor nerve conduction velocity evaluation was performed as a measure of AGE related diabetic complications.
In vivo study to evaluate effect of compound of present invention on Nerve Conduction Velocity
Healthy male Wistar rats, 170-250 g, 6-10 weeks old, were selected for the study. The animals were divided into two groups i.e. a non-diabetic control group (Normal Control Rats) and a diabetic group. Diabetes was induced (in the diabetic group of animals) by a single intraperitoneal injection of streptozotocin (60 mg/kg body weight) dissolved in citrate buffer (pH 4.5) (Biro et al; Brain Research Bulletin (1997) 44(3): 259-263). […]
150 mg/kg of Compound No 1 was administered to diabetic rats and diabetic control group was treated with vehicle for Compound 1. The rats were monitored throughout the experiment for water intake, food intake, changes in body weight, blood biochemistry parameters, urine parameters and mortality. […]
After 8 weeks of treatment NCV was estimated as described by Biro et al, (1997). […] Electromyograms (EMG's) from the plantar muscles were amplified and recorded using a data acquisition system (MacLab®, ADI instruments). […] Latency and the duration of the M responses were measured and the motor nerve conduction velocity (MNCV) was calculated. […]
Anode was placed in proximity to the cathode. Upon stimulation of the nerve, responses (EMG) were recorded from the plantar surface. […]

**Q.** Which “Nerve Conduction Velocity (NCV)” value does the source give for `CS(=O)(=O)NNC(=O)c1ccc[n+](CC(=O)c2cccs2)c1` [Compound 1] here?
**A.** The value was “improvement in NCV”.
